# Publication PMC4674680, “An in cellulo-derived structure of PAK4 in complex with its inhibitor Inka1” (Nature Communications, 2015)
# No end group written: not given here.
# Columns and labels:
# [1] = molecular target: T1, PAK4cat (Homo sapiens, UniProt O96013); assay: In-vitro kinase assay, PAK4cat (phosphorylation of GST-Raf13); format: biochemical; design: PAK1 (1–545) and PAK4 (286–591), respectively; 6His (N); made in house; host or cells: Escherichia coli BL21-CodonPlus(DE3); details: Fig. 1d; n=3; IC50 from intercepts of the graphs; PAK 50 nM, 10 μM GST-Raf1S338, 10 μM ATP (γ32P), pH 7.3, 30 °C 20 min; peptide preincubated on ice 10 min
# T1 sequence (O96013 286-591): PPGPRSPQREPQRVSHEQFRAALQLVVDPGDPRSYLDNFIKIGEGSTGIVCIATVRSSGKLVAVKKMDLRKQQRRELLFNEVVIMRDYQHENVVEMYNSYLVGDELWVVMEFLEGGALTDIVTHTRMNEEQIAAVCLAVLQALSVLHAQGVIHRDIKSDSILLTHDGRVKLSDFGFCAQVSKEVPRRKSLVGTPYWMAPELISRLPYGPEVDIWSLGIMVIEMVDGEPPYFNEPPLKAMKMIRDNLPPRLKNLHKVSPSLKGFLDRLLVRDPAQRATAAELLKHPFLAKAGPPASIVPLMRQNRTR
# Experimental: Purified PAK1 or PAK4 (50 nM in 25–50 μl) were incubated with 10 μM GST-Raf1S338 peptide in 10 μM ATP (2 μCi of γ32P ATP) of kinase buffer (25 mM HEPES, pH 7.3, 0.1% Triton X-100, 50 mM KCl, 10 mM MgCl2, 1 mM dithiothreitol) at 30 °C for 20 min. Samples were analysed by SDS–PAGE or adsorption of the GST substrate mix onto polyvinylidene difluoride membranes, followed by extensive washing to remove free γ32P-ATP. The synthetic peptides of 95% purity, as determined by HPLC and mass spectrometric analyses (GenScript), were soluble in aqueous PBS. Stock solutions (10 mM) were quantified via calculated extinction coefficients and absorbance measurements at 280 nm and stored at −80 °C. The diluted peptides were incubated at the indicated concentrations with the kinase on ice (10 min) before addition of γ32P ATP and subsequent incubation at 30 °C. The synthetic peptide array (Jerini Biotools) was phosphorylated in situ as described previously.
# [2] = molecular target: T1, PAK4cat; assay: In-cellulo crystal formation with PAK4cat; format: cell-based; design: PAK4 (286–591); details: transfected mammalian cells
# Experimental: Generation and harvesting of intracellular PAK4 crystals
# COS-7, HeLa, HEK293 or U2OS cells (35-mm culture dish or glass coverslip) were typically transfected with 2.5 μg of each plasmid in 2 ml of media using Lipofectamine 2000 (Invitrogen) or the GenomeONE Neo EX haemagglutinating virus of Japan envelope transfection kit (Cosmo Bio Co. Ltd) as per the manufacturer's protocol. Crystals were observed by phase-contrast microscopy using a × 10 objective (Nikon Eclipse TE300) 1–4 days post transfection. The structure of Flag–iBox–PAK4cat (Figs 2 and 3) was determined from crystals grown in COS-7 cells. The cells were harvested 3 days after transfection by incubating in PBS with 0.125% (w/v) trypsin and 25% (v/v) glycerol (Merck) for 30 min. Individual cells containing single crystals were then mounted in 0.1–0.2 mm cryoloops (Hampton Research) and flash cooled in liquid nitrogen.
# [3] = test system: GFP–Inka1:PAK4cat co-crystals; assay: Live imaging of growing GFP-Inka1:PAK4cat crystals, effect of PF-03758309; format: cell-based
# Experimental: Live cell imaging of crystal growth and SIM and confocal microscopy
# The cells were plated at 50% confluence glass cover slips overnight: plasmid transfection used GFP–iBox–Pak4cat and FLAG–iBox–Pak4cat constructs at a ratio of 4:1, to promote crystal nucleation. The cover slips were transferred to a Chamlide magnetic chamber (Live Cell Instruments, Seoul, Korea) with 5% CO2 at 37 °C for live imaging on an Zeiss Axiovert 200 M live-cell imaging with a × 10 objective. We imaged multiple chosen regions for 8 h at 6-min intervals. To measure crystal growth rate, we used instead a Nikon Eclipse Ti microscope equipped with spinning disk confocal attachment (Yokogawa CSU-22 module) to avoid photo-damage. The cells were imaged at × 60 1.4 numerical aperture (NA) objective at 2-min intervals. For SIM and confocal imaging, cells were fixed in non-hardening mounting media (Vectashield). The slides were imaged by Delta vision OMX SIM with a × 100 1.4 NA objective. […] The three-dimensional stacks were analysed by IMARIS software.
# [4] = test system: PAK4; details: binds in vitro; ATP-competitive; cited from earlier work
# Experimental: As the Flag-iBox-PAK4 crystal structure contained bound ATP, which is stabilized by the Inka1 inhibitory peptide (Fig. 3a), we were interested on the effect of the ATP-competitive PAK4 inhibitor PF-03758309, which binds with 10 nM affinity in vitro[45]. […] Thus, PF-03758309 appears to allow PAK4cat to incorporate with sub-stoichiometric levels of GFP–Inka1, consistent with PF-03758309 either reducing the affinity of GFP–Inka1 or allowing PAK4cat inco ...
molecule,measurement,setting,value
RGRSRQPLVLGDNC [iBox14],IC50,[1],5 µM
"Inka1 (255–285): C-terminal 31 amino acid of Inka1 (RPEPELPADVSRFAALMSCRSRQPIICNDVS; UniProt Q96EL1 255-285, looked up, fragment)","Induction of intracellular crystals with PAK4cat, in words",[2],able to induce crystals more efficiently than the Inka1 (166–203)
Cc1nc(Nc2[nH]nc3c2CN(C(=O)N[C@H](CN(C)C)c2ccccc2)C3(C)C)c2sccc2n1 [PF-03758309],"Effect on crystal GFP signal, in words","[3]; 5 μM PF-03758309, elongation phase",depleted of GFP signal
same,"Effect on crystal growth rate, in words","[3]; after PF3758309 addition (5 μM), Fig. 6d",Crystal growth slowed
same,affinity,[4],10 nM
